# Results from PubChem BioAssay (NCI).
#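 Growth conditions: 96-well plates. Treatment: test compound, 48 hours, 5 concentrations. Analysis: linear interpolation between bracketing concentrations; unreached endpoints set to highest concentration. GI50 = concentration required for 50% inhibition of growth. TGI denotes the concentration required for complete inhibition of growth.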
# Legend:
# Assay in all cases: growth of human tumour cells (NCI), 48 h
# SNB-19 CNS = system: SNB-19 CNS
# HL-60(TB) leukemia = system: HL-60(TB) leukemia
# HT29 colon = system: HT29 colon
# RXF 393 renal = system: RXF 393 renal
# NCI-H460 lung = system: NCI-H460 lung
# MCF7 breast = system: MCF7 breast
# ACHN renal = system: ACHN renal
# HCC-2998 colon = system: HCC-2998 colon
# A549 NSCLC = system: A549 NSCLC
# SK-MEL-5 melanoma = system: SK-MEL-5 melanoma
# UO-31 renal = system: UO-31 renal
# HS 578T breast = system: HS 578T breast
# OVCAR-4 ovarian = system: OVCAR-4 ovarian
# UACC-62 melanoma = system: UACC-62 melanoma
# IGROV1 ovarian = system: IGROV1 ovarian
# SK-MEL-28 melanoma = system: SK-MEL-28 melanoma
# CAKI-1 renal = system: CAKI-1 renal
# NCI-H23 lung = system: NCI-H23 lung
# MDA-MB-231 breast = system: MDA-MB-231 breast
# K-562 leukemia = system: K-562 leukemia
# U251 CNS = system: U251 CNS
# BT-549 breast = system: BT-549 breast
# COLO 205 colon = system: COLO 205 colon
# KM12 colon = system: KM12 colon
# HCT-116 colon = system: HCT-116 colon
# SW-620 colon = system: SW-620 colon
# OVCAR-5 ovarian = system: OVCAR-5 ovarian
# T-47D breast = system: T-47D breast
# LOX IMVI melanoma = system: LOX IMVI melanoma
# HOP-92 NSCLC = system: HOP-92 NSCLC
# NCI/ADR-RES ovarian = system: NCI/ADR-RES ovarian
# MOLT-4 leukemia = system: MOLT-4 leukemia
# CCRF-CEM leukemia = system: CCRF-CEM leukemia
# NCI-H522 lung = system: NCI-H522 lung
# SF-539 CNS = system: SF-539 CNS
# 786-0 renal = system: 786-0 renal
# SR leukemia = system: SR leukemia
# UACC-257 melanoma = system: UACC-257 melanoma
# OVCAR-8 ovarian = system: OVCAR-8 ovarian
# SF-268 CNS = system: SF-268 CNS
# HOP-62 NSCLC = system: HOP-62 NSCLC
# SF-295 CNS = system: SF-295 CNS
# M14 melanoma = system: M14 melanoma
# HCT-15 colon = system: HCT-15 colon
# EKVX NSCLC = system: EKVX NSCLC
# NCI-H226 lung = system: NCI-H226 lung
# RPMI-8226 leukemia = system: RPMI-8226 leukemia
# OVCAR-3 ovarian = system: OVCAR-3 ovarian
# A498 renal = system: A498 renal
# SNB-75 CNS = system: SNB-75 CNS
# SK-OV-3 ovarian = system: SK-OV-3 ovarian
# SK-MEL-2 melanoma = system: SK-MEL-2 melanoma
# DU-145 prostate = system: DU-145 prostate
# SN12C renal = system: SN12C renal
smiles,measurement,setting,value
COc1cc(/C=C/C(=O)c2cc(OC)c(OC)c(OC)c2)ccc1Oc1nc2c(c(=O)n(C)c(=O)n2C)n1C,GI50,SNB-19 CNS,2.71 µM
same,TGI,SNB-19 CNS,13.5 µM
same,GI50,HL-60(TB) leukemia,2.17 µM
same,TGI,HL-60(TB) leukemia,5.32 µM
same,GI50,HT29 colon,1.87 µM
same,TGI,HT29 colon,3.9 µM
same,GI50,RXF 393 renal,2.03 µM
same,TGI,RXF 393 renal,3.65 µM
same,GI50,NCI-H460 lung,2.24 µM
same,TGI,NCI-H460 lung,6.37 µM
same,GI50,MCF7 breast,2.2 µM
same,TGI,MCF7 breast,27.6 µM
same,GI50,ACHN renal,2.93 µM
same,TGI,ACHN renal,8.06 µM
same,GI50,HCC-2998 colon,1.84 µM
same,TGI,HCC-2998 colon,3.35 µM
same,GI50,A549 NSCLC,2.2 µM
same,TGI,A549 NSCLC,6.52 µM
same,GI50,SK-MEL-5 melanoma,1.75 µM
same,TGI,SK-MEL-5 melanoma,3.33 µM
same,GI50,UO-31 renal,1.6 µM
same,TGI,UO-31 renal,3.1 µM
same,GI50,HS 578T breast,7.93 µM
same,TGI,HS 578T breast,> 100 µM
same,GI50,OVCAR-4 ovarian,2.49 µM
same,TGI,OVCAR-4 ovarian,> 100 µM
same,GI50,UACC-62 melanoma,1.81 µM
same,TGI,UACC-62 melanoma,3.61 µM
same,GI50,IGROV1 ovarian,2.5 µM
same,TGI,IGROV1 ovarian,5.35 µM
same,GI50,SK-MEL-28 melanoma,2.57 µM
same,TGI,SK-MEL-28 melanoma,7.03 µM
same,GI50,CAKI-1 renal,2.22 µM
same,TGI,CAKI-1 renal,7.92 µM
same,GI50,NCI-H23 lung,1.85 µM
same,TGI,NCI-H23 lung,4.27 µM
same,GI50,MDA-MB-231 breast,2.55 µM
same,TGI,MDA-MB-231 breast,20.3 µM
same,GI50,K-562 leukemia,2.29 µM
same,TGI,K-562 leukemia,8.23 µM
same,GI50,U251 CNS,1.28 µM
same,TGI,U251 CNS,2.6 µM
same,GI50,BT-549 breast,1.56 µM
same,TGI,BT-549 breast,3.02 µM
same,GI50,COLO 205 colon,1.91 µM
same,TGI,COLO 205 colon,3.62 µM
same,GI50,KM12 colon,1.62 µM
same,TGI,KM12 colon,3.16 µM
same,GI50,HCT-116 colon,0.684 µM
same,TGI,HCT-116 colon,2.06 µM
same,GI50,SW-620 colon,1.6 µM
same,TGI,SW-620 colon,3.46 µM
same,GI50,OVCAR-5 ovarian,2.9 µM
same,TGI,OVCAR-5 ovarian,7.41 µM
same,GI50,T-47D breast,4.39 µM
same,TGI,T-47D breast,65.4 µM
same,GI50,LOX IMVI melanoma,1.14 µM
same,TGI,LOX IMVI melanoma,2.64 µM
same,GI50,HOP-92 NSCLC,2.09 µM
same,TGI,HOP-92 NSCLC,5.84 µM
same,GI50,NCI/ADR-RES ovarian,2.96 µM
same,TGI,NCI/ADR-RES ovarian,> 100 µM
same,GI50,MOLT-4 leukemia,2.29 µM
same,TGI,MOLT-4 leukemia,6.34 µM
same,GI50,CCRF-CEM leukemia,1.97 µM
same,TGI,CCRF-CEM leukemia,6.48 µM
same,GI50,NCI-H522 lung,1.43 µM
same,TGI,NCI-H522 lung,2.81 µM
same,GI50,SF-539 CNS,2.73 µM
same,TGI,SF-539 CNS,7.74 µM
same,GI50,786-0 renal,1.63 µM
same,TGI,786-0 renal,3.26 µM
same,GI50,SR leukemia,1.21 µM
same,TGI,SR leukemia,4.89 µM
same,GI50,UACC-257 melanoma,2.05 µM
same,TGI,UACC-257 melanoma,4.63 µM
same,GI50,OVCAR-8 ovarian,1.73 µM
same,TGI,OVCAR-8 ovarian,5.2 µM
same,GI50,SF-268 CNS,3.29 µM
same,TGI,SF-268 CNS,10.2 µM
same,GI50,HOP-62 NSCLC,2.63 µM
same,TGI,HOP-62 NSCLC,5.89 µM
same,GI50,SF-295 CNS,2.65 µM
same,TGI,SF-295 CNS,13 µM
same,GI50,M14 melanoma,1.87 µM
same,TGI,M14 melanoma,4.55 µM
same,GI50,HCT-15 colon,2.56 µM
same,TGI,HCT-15 colon,> 100 µM
same,GI50,EKVX NSCLC,26.5 µM
same,TGI,EKVX NSCLC,> 100 µM
same,GI50,NCI-H226 lung,2.98 µM
same,TGI,NCI-H226 lung,8.43 µM
same,GI50,RPMI-8226 leukemia,1.2 µM
same,TGI,RPMI-8226 leukemia,4.91 µM
same,GI50,OVCAR-3 ovarian,2.37 µM
same,TGI,OVCAR-3 ovarian,4.88 µM
same,GI50,A498 renal,2.51 µM
same,TGI,A498 renal,10.2 µM
same,GI50,SNB-75 CNS,1.77 µM
same,TGI,SNB-75 CNS,7.81 µM
same,GI50,SK-OV-3 ovarian,3.73 µM
same,TGI,SK-OV-3 ovarian,35.5 µM
same,GI50,SK-MEL-2 melanoma,3.35 µM
same,TGI,SK-MEL-2 melanoma,7.78 µM
same,GI50,DU-145 prostate,3.92 µM
same,TGI,DU-145 prostate,15.5 µM
same,GI50,SN12C renal,2.24 µM
same,TGI,SN12C renal,7.79 µM
